In ChEMBL document CHEMBL1201862, “PubChem BioAssay data set” (2004):
Blank lines part the entries; values can stand above or below the compound they belong to. Activity calls are given as the source filed them.

How the values were obtained:
[1] = molecular target: T1, Bcl-2-related protein A1 (Mus musculus, UniProt Q07440); assay: Bfl-1 binding inhibitors, SAR follow-up, biochemical, fluorescence polarization (AID 1070)
T1 sequence (Q07440 whole entry): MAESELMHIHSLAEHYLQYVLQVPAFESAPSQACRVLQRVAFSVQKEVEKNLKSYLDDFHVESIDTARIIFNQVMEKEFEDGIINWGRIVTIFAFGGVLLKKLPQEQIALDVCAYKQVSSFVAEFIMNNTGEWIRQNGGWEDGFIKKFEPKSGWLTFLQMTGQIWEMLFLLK

[2] = molecular target: T1, Bcl-2-related protein A1; assay: Bfl-1 inhibitors blocking BH3 peptide binding, confirmation, biochemical, TR-FRET, mouse Bfl-1 (AID 621);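 further: TR-FRET binding of GST-Bfl-1 to FITC-labelled Bid peptide via terbium antibody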
[3] = molecular target: Glyceraldehyde-3-phosphate dehydrogenase (Homo sapiens, UniProt P04406)
Chain of Glyceraldehyde-3-phosphate dehydrogenase (P04406 whole entry): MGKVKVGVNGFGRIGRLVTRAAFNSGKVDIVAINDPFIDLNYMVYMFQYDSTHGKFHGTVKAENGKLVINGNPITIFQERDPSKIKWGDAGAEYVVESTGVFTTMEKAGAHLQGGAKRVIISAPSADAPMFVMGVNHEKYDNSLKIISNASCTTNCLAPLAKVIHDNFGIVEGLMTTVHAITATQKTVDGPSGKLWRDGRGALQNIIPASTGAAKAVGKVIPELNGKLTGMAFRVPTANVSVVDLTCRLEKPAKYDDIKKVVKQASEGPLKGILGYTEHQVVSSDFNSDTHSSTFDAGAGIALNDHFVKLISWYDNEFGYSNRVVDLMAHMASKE

[4] = molecular target: T2, Estrogen receptor (Homo sapiens, UniProt P03372);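 further: potency for inhibiting coactivator peptide recruitment to the receptor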
T2 sequence (P03372 whole entry): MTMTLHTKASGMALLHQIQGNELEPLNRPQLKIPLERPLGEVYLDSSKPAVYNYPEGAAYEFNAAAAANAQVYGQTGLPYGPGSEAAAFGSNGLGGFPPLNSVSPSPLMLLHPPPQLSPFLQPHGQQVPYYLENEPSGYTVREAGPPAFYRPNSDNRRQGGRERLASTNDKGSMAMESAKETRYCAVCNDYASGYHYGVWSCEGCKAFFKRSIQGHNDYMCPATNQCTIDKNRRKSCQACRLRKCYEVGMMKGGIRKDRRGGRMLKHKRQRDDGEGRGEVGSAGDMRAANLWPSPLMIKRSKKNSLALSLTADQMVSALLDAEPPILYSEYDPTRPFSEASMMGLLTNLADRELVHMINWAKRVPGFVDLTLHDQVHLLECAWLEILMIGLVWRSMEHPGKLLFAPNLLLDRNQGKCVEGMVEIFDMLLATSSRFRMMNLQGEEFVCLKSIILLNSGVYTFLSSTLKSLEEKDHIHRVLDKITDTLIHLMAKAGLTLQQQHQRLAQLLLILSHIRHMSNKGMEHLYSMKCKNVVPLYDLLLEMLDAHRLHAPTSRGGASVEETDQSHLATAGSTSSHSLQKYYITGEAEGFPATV

[5] = cytotoxicity in HPDE-C7 cells, cell-based, fluorescence, HTS (AID 430); assay type: functional; details: Homo sapiens
[6] = Shn3 3'UTR reporter inhibitors, dose response, cell-based, Clone20 osteoblasts, firefly luciferase, cherry-picked (AID 624132); assay type: functional;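 further: firefly luciferase luminescence from reporter carrying the Shn3 3'UTR in osteoblasts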
[7] = HepG2 cell cytotoxicity, dose response, cytotoxicity control for Shn3 inhibitor project, CellTiter-Glo, cherry-picked (AID 624134); assay type: functional, cell-based
[8] = molecular target: Sphingosine 1-phosphate receptor 2 (Homo sapiens, UniProt O95136); assay: Dose Response Cell Based Assay for Antagonists of the S1P2 Receptor. [Related pubchem assays: 856, 736 ]; assay type: functional
Chain of Sphingosine 1-phosphate receptor 2 (O95136 whole entry): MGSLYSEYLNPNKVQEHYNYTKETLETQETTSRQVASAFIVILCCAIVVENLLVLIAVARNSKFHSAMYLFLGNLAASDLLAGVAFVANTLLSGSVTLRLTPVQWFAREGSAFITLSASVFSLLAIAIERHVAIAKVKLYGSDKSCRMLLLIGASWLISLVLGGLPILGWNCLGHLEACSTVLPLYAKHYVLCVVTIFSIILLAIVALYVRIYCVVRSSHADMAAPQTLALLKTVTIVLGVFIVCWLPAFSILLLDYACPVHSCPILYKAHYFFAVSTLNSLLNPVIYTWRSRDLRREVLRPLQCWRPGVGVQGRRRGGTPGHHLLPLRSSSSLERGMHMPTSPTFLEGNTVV

[9] = cytotoxicity in KRAS-transformed pancreatic duct cells, primary screen, cell-based, fluorescence, HTS (AID 431); assay type: functional; details: Homo sapiens;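 further: cell line used: HPDE-C7K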
[10] = control 3'UTR Renilla luciferase suppression, dose response, counter-screen for Shn3 inhibitor project, cell-based, Clone20-Shn3RL, cherry-picked (AID 624133); assay type: functional
[11] = molecular target: T3, CAAX prenyl protease 2 (Saccharomyces cerevisiae S288c, UniProt Q03530); assay type: biochemical
T3 sequence (Q03530 whole entry): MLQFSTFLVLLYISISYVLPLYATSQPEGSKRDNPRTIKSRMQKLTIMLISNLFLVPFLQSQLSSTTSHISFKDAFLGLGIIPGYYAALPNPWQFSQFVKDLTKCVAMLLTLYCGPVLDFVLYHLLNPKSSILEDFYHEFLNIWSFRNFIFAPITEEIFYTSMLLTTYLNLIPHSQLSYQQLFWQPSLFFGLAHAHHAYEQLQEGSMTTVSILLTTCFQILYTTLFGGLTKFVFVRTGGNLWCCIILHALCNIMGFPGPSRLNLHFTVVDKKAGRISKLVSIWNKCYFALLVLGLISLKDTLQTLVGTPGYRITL

[12] = molecular target: T4, Heat shock factor protein 1 (Mus musculus, UniProt P38532); assay: inhibition of MG132-induced HSE-luciferase signal, confirmation, cell-based, NIH3T3, luminescence, dose retest (AID 2382); assay type: functional;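 further: NIH3T3 fibroblasts with HSF1-driven luciferase reporter stressed by proteasome inhibitor MG132; luminescence from HSF1-driven luciferase expression after 8 hours of MG132 stress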
T4 sequence (P38532 whole entry): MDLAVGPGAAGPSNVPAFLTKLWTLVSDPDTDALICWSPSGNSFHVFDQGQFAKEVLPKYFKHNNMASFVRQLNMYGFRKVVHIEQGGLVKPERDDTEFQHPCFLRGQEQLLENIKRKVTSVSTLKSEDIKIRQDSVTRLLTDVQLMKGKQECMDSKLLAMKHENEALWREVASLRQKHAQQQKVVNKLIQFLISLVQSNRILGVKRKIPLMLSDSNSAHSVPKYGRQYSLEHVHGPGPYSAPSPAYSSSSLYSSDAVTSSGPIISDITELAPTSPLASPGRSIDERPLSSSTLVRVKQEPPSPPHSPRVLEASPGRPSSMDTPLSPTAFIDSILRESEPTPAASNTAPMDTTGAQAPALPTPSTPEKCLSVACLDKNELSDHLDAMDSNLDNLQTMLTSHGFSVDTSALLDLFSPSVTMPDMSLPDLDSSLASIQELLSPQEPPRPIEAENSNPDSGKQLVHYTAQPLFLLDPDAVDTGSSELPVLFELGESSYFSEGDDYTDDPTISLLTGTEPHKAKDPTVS

[13] = cytotoxicity toward NIH3T3 fibroblasts, dose response, counter-screen, cell-based, ATP luminescence, mouse fibroblasts (AID 2010); assay type: functional;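 further: cells exposed to compound for about 90 hours before reading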
[14] = cells
[15] = inhibitors of intracellular T. cruzi replication, confirmation, NIH3T3 host cells, beta-gal luminescence (AID 2044); assay type: functional, cell-based;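 further: intracellular parasites grown in NIH/3T3 mouse fibroblasts as host cells; luminescent beta-galactosidase reporter signal from transgenic T. cruzi replicating inside host cells; inhibitors lower the luminescence signal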
[16] = molecular target: T5, Estrogen receptor beta (Homo sapiens, UniProt Q92731);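 further: recombinant ER-beta bound to coactivator SRC1 peptide in presence of estradiol agonist; inhibitors block coactivator peptide binding and lower the FRET signal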
T5 sequence (Q92731 whole entry): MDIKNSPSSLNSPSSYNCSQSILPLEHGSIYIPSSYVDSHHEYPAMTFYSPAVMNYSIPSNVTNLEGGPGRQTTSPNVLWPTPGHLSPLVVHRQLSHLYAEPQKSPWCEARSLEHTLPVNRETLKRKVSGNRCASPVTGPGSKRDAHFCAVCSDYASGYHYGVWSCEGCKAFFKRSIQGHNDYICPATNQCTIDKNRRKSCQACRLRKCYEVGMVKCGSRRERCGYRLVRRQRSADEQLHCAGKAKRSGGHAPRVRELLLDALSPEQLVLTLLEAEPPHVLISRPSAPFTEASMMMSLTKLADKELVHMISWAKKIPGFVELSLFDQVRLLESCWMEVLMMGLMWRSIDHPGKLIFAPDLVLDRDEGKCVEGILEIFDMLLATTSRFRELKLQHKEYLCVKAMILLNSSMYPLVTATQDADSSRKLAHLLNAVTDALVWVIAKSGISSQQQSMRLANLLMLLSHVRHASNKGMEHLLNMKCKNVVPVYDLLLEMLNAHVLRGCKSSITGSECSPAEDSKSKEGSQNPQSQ

[17] = molecular target: Induced myeloid leukemia cell differentiation protein Mcl-1 (Homo sapiens, UniProt Q07820); assay type: functional
Chain of Induced myeloid leukemia cell differentiation protein Mcl-1 (Q07820 whole entry): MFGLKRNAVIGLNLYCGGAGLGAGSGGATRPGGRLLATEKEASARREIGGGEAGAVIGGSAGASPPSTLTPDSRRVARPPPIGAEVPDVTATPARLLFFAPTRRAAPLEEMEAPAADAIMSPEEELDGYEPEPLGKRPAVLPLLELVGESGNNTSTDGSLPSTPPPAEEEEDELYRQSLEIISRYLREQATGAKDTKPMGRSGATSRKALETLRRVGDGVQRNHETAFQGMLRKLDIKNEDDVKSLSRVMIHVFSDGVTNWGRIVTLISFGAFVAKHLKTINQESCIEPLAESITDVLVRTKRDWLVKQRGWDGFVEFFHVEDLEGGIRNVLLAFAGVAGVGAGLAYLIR

[18] = THP-1 cell cytotoxicity, dose response, cytotoxicity control for Vif-APOBEC3G degradation inhibitor project, THP-1 cells (AID 1117359); assay type: functional; details: Human immunodeficiency virus 1, THP-1
[19] = molecular target: Protein Tat (Human immunodeficiency virus type 1 group M subtype B (isolate HXB2)(HIV-1), UniProt P04608); assay type: functional;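 further: tat binding to TAR RNA read out by fluorescence polarization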
Chain of Protein Tat (P04608 whole entry): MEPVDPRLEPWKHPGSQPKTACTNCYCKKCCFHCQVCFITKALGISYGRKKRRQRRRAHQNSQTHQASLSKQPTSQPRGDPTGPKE

[20] = molecular target: Ephrin type-A receptor 4 (Mus musculus, UniProt Q03137); assay: inhibitors of EphA4 binding to KYL peptide, primary screen, biochemical, colorimetric, mouse EphA4 (AID 689); assay type: functional
Chain of Ephrin type-A receptor 4 (Q03137 whole entry): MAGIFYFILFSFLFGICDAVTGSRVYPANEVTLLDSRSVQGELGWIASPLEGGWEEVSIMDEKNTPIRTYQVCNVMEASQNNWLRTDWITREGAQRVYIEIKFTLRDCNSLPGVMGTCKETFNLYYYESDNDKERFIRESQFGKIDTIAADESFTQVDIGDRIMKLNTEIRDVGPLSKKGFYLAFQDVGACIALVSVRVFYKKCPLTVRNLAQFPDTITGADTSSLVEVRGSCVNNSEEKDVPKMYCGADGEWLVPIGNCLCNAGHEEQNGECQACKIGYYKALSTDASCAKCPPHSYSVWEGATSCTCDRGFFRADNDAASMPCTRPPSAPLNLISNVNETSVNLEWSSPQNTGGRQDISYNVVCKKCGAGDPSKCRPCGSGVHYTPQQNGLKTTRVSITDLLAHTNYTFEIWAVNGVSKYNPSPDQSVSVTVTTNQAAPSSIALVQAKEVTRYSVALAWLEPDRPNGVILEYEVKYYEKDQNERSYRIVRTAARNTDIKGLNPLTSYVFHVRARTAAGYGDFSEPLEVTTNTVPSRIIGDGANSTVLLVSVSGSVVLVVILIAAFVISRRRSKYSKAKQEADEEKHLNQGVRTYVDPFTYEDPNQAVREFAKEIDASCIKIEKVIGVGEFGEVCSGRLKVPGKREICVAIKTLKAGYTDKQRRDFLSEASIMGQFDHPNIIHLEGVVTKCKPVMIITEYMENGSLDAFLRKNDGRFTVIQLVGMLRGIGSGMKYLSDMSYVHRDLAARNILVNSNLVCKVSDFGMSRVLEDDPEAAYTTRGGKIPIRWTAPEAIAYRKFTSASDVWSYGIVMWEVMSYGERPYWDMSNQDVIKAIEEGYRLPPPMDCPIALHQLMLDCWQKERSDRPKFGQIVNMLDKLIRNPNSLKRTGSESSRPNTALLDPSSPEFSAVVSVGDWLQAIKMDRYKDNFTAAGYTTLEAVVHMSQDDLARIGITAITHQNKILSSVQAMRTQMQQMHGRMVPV

[21] = molecular target: T5, Estrogen receptor beta; assay: ERβ–SRC-3 coactivator interaction inhibitors, confirmation, orthogonal assay, biochemical, ELISA, streptavidin-HRP readout (AID 1060)

SMILES: Cn1c(SCC(=O)Nc2sccc2C#N)nnc1-c1ccccc1
IC50 [4]: 17.1 µM (active)

SMILES: CCCC(=O)N1CCN(c2ccc(NC(=O)c3cc4ccccc4o3)cc2Cl)CC1
EC50 [5]: 7.87 µM (active)
AC50 [6]: 4.1 µM (active)
AC50 [7]: 7.37 µM (active)
IC50 [8]: 4.67 µM (active)
EC50 [9]: 7.44 µM (active)
AC50 [10]: 8.96 µM (active)
AC50 [11]: 11.5 µM (active)
EC50 [12]: 7.51 µM (active)

SMILES: COc1ccc(C(=O)OC2CCN(C)CC2)cc1
EC50 [13]: > 60 µM (not active)
EC50 [14]: 77 nM (active)
EC50 [15]: < 100 nM (active)

Continued, in another order:

IC50 [1]: > 100 µM (not active)
IC50 [2]: > 100 µM (not active)
IC50 [3]: > 100 µM (not active)
SMILES: NCCN1CCN(C2=C(Cl)C(=O)N(c3ccc(Cl)c(Cl)c3)C2=O)CC1

IC50 [1]: > 100 µM (not active)
IC50 [2]: > 100 µM (not active)
IC50 [3]: > 100 µM (not active)
SMILES: O=C1C(Cl)=C(N2CCN(c3ccccc3F)CC2)C(=O)N1c1ccc(Cl)c(Cl)c1

IC50 [16]: 9.71 µM (active)
IC50 [17]: 3.97 µM (active)
IC50 [19]: 3.05 µM (inconclusive)
IC50 [20]: 11.9 µM (active)
IC50 [21]: > 50 µM (not active)
SMILES: CCCSC1=N/C(=C\C=C\c2ccco2)C(=O)S1
CC50 [18]: > 40 µM (active)
